The supplement of paper PMC5908809

Experiments:
[1] = tested on: normal primary NK cells, pool 3 (3 donors) (IL-2 2.5 ng/mL); test: percent inhibition of viability; higher = more inhibition; settings: 72 h
[2] = tested on: normal primary NK cells, pool 1 (3 donors), resting (IL-2 0 ng/mL); test: as above; settings: 72 h
[3] = tested on: KHYG-1 (IL-2 2.5 ng/mL); test: as above; settings: 72 h
[4] = tested on: YT (IL-2 2.5 ng/mL); test: as above; settings: 72 h
[5] = tested on: normal primary NK cells, pool 2 (3 donors) (IL-2 2.5 ng/mL); test: as above; settings: 72 h
[6] = tested on: NKL (IL-2 2.5 ng/mL); test: as above; settings: 72 h
[7] = tested on: NK-92 (IL-2 2.5 ng/mL); test: as above; settings: 72 h
[8] = tested on: normal primary NK cells, pool 1 (3 donors) (IL-2 2.5 ng/mL); test: as above; settings: 72 h
[9] = tested on: SNK-6 (IL-2 2.5 ng/mL); test: as above; settings: 72 h
[10] = tested on: NK-YS (IL-2 2.5 ng/mL); test: as above; settings: 72 h
[11] = tested on: IMC-1 (IL-2 20 ng/mL); test: as above; settings: 72 h
[12] = tested on: KAI3 (IL-2 2.5 ng/mL); test: as above; settings: 72 h
[13] = tested on: DERL-7 (IL-2 2.5 ng/mL); test: as above; settings: 72 h
[14] = tested on: normal NK cells expanded with K562-aAPC; test: drug sensitivity score (DSS) (DSS units); higher = more sensitive; extreme values may be limits of the assay; settings: 72 h; IL-2 2.5 ng/mL
Description: (§1)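 Drug sensitivity and resistance testing on K562-aAPC-expanded normal NK cells: 5 concentrations (10-fold steps over a 10,000-fold range), 72 h at 37 °C, viability by CellTiter-Glo normalised to DMSO and benzethonium chloride controls; DSS from the fitted curve.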

[15] = tested on: normal primary NK cells, pool 3 (3 donors) (IL-2 2.5 ng/mL); test: as above; settings: 72 h
[16] = tested on: normal primary NK cells, pool 1 (3 donors), resting (IL-2 0 ng/mL); test: as above; settings: 72 h
[17] = tested on: KHYG-1 (IL-2 2.5 ng/mL); test: as above; settings: 72 h
[18] = tested on: YT (IL-2 2.5 ng/mL); test: as above; settings: 72 h
[19] = tested on: normal primary NK cells, pool 2 (3 donors) (IL-2 2.5 ng/mL); test: as above; settings: 72 h
[20] = tested on: NKL (IL-2 2.5 ng/mL); test: as above; settings: 72 h
[21] = tested on: NK-92 (IL-2 2.5 ng/mL); test: as above; settings: 72 h
[22] = tested on: normal primary NK cells, pool 1 (3 donors) (IL-2 2.5 ng/mL); test: as above; settings: 72 h
[23] = tested on: SNK-6 (IL-2 2.5 ng/mL); test: as above; settings: 72 h
[24] = tested on: NK-YS (IL-2 2.5 ng/mL); test: as above; settings: 72 h
[25] = tested on: IMC-1 (IL-2 20 ng/mL); test: as above; settings: 72 h
[26] = tested on: KAI3 (IL-2 2.5 ng/mL); test: as above; settings: 72 h
[27] = tested on: DERL-7 (IL-2 2.5 ng/mL); test: as above; settings: 72 h
[28] = tested on: normal NK cells expanded with K562-aAPC; test: percent inhibition of viability; higher = more inhibition; settings: 72 h, IL-2 2.5 ng/mL
Description: as §1

Cn1cnc2c(F)c(Nc3ccc(Br)cc3F)c(C(=O)NOCCO)cc21 [Binimetinib] (max concentration tested 1000 nM)
percent inhibition of viability [%]
Settings | 0.1 nM | 1 nM | 10 nM | 100 nM | 1000 nM
[1] | -5.24 | 2.75 | -0.18 | 2.58 | 2.52
[2] | -4.5 | 21.4 | 12.5 | 9.21 | 17.1
[3] | -8.34 | -1.29 | 0.25 | 24.1 | 42.7
[4] | -6.43 | -3.81 | -0.11 | 2.57 | 13.4
[5] | -7.84 | -6.09 | 8.89 | -1.5 | 11
[6] | -7.91 | -8.09 | 19.3 | 43.6 | 53.2
[7] | -10.1 | -5.18 | -13.1 | 0.36 | -1.28
[8] | -6.5 | 12.6 | 14.8 | 18.1 | 22.7
[9] | -19.8 | -4.3 | -10.5 | -10.4 | -8.36
[10] | -5.25 | -2.09 | -0.43 | 5.51 | 15.3
[11] | -6 | -0.56 | -0.39 | 4.96 | 6.74
[12] | -1.37 | 4.03 | 7.85 | 24.3 | 29.6
[13] | 1.19 | 7.3 | 10.5 | 16.3 | 33.7
[28] | 1.57 | -5.49 | -0.07 | 6.65 | 16.2

Settings | drug sensitivity score
[14] | 0.91
[15] | 0
[16] | 1.99
[17] | 5.14
[18] | 0.31
[19] | 0
[20] | 10.4
[21] | 0
[22] | 4.75
[23] | 0
[24] | 0.72
[25] | 0
[26] | 4.5
[27] | 3.71

CCC(C)n1ncn(-c2ccc(N3CCN(c4ccc(OCC5COC(Cn6cncn6)(c6ccc(Cl)cc6Cl)O5)cc4)CC3)cc2)c1=O (stereo not given) [Itraconazole] (max concentration tested 5000 nM)
percent inhibition of viability [%]
Settings | 0.5 nM | 5 nM | 50 nM | 500 nM | 5000 nM
[1] | -9.47 | -2.98 | -1.54 | 12.1 | 22.5
[2] | -22.8 | -11.8 | -19.2 | -4.28 | 28.1
[3] | -2.72 | 3.74 | 1.39 | 6.98 | 98.1
[4] | -3.86 | -5.55 | -5.66 | 0.63 | 45.8
[5] | 0.8 | -6.34 | 8.01 | 14.5 | 25.8
[6] | 6.31 | -2.93 | -3.73 | -6.13 | 84.8
[7] | -7.29 | -11.1 | -8.89 | 38.2 | 91.5
[8] | -10.8 | -2.66 | -5.12 | 4.85 | 30.5
[9] | -8.18 | 3.54 | 19.4 | 39.2 | 93.4
[10] | 3.15 | -1.22 | -1.67 | 8.46 | 68.9
[11] | -1.82 | -3.66 | -2.37 | 9.1 | 29.4
[12] | 6.2 | -4.32 | -3.2 | 12.8 | 91.9
[13] | 7.65 | 4.19 | -0.11 | 8.64 | 83.6
[28] | -0.18 | -0.93 | 0.65 | 2.54 | 33

Settings | drug sensitivity score
[14] | 1.9
[15] | 2.08
[16] | 0.93
[17] | 6.51
[18] | 2.44
[19] | 2.45
[20] | 4.25
[21] | 10.1
[22] | 2.13
[23] | 10.3
[24] | 5.2
[25] | 2.54
[26] | 7.24
[27] | 6.05

Cc1nc(NC(=O)N2CCC[C@H]2C(N)=O)sc1-c1ccnc(C(C)(C)C(F)(F)F)c1 [Alpelisib] (max concentration tested 2500 nM)
percent inhibition of viability [%]
Settings | 0.25 nM | 2.5 nM | 25 nM | 250 nM | 2500 nM
[1] | -7.64 | -5.69 | -6.05 | 0.32 | 2.93
[2] | -10.5 | 5.01 | -8.93 | 6.1 | 10.3
[3] | -0.82 | 0.62 | 4.26 | 2.48 | 8.78
[4] | -0.82 | 0.14 | 1.96 | 2.35 | 13
[5] | -4.3 | -1.23 | 0.06 | 3.89 | 11.4
[6] | -4.18 | 0.03 | 10.1 | 5.23 | 12.8
[7] | -1.19 | 0.59 | 11.2 | 7.16 | 16.2
[8] | -6.99 | -1.42 | -4.27 | 3.43 | 6.48
[9] | -6.11 | 8.58 | 10.5 | 15.4 | 29
[10] | -0.06 | -1.74 | 4.37 | 2.5 | 12.7
[11] | 3.85 | 3.43 | 5.77 | 4.62 | 5.3
[12] | 6.58 | 6.32 | 4.01 | 8.23 | 30.4
[13] | -4.58 | -9.56 | -0.97 | -2.79 | 25.6
[28] | 0.72 | 1.85 | -0.5 | 3.19 | 30.6

Settings | drug sensitivity score
[14] | 1.85
[15] | 0
[16] | 0.03
[17] | 0
[18] | 0.26
[19] | 0.14
[20] | 0.2
[21] | 0.74
[22] | 0
[23] | 3.22
[24] | 0.18
[25] | 0
[26] | 2.35
[27] | 0.82

CCc1cc2c(cc1N1CCC(N3CCOCC3)CC1)C(C)(C)c1[nH]c3cc(C#N)ccc3c1C2=O [Alectinib] (max concentration tested 1000 nM)
percent inhibition of viability [%]
Settings | 0.1 nM | 1 nM | 10 nM | 100 nM | 1000 nM
[1] | -8.17 | -9.65 | -5.32 | -8.21 | -0.39
[2] | -6.37 | -4.08 | -8.77 | 1.83 | 12.5
[3] | -3.94 | 0.6 | -1.88 | 10.3 | 14.5
[4] | -3.8 | -4.08 | -6.26 | 0.11 | 2.48
[5] | -3.03 | -7.68 | -3.35 | -8.46 | 3.39
[6] | -9 | -7.92 | -11.6 | -10.4 | 20.1
[7] | -7.49 | -8.89 | -12 | 9.46 | 24.4
[8] | -1.7 | -9.82 | -10.4 | -1.45 | 0.6
[9] | -2.43 | -0.7 | -18.9 | -29 | -2.44
[10] | -5.67 | -3.61 | -7.75 | 6.14 | 18.4
[11] | -2.94 | 1.06 | -2.15 | -2.79 | -0.64
[12] | -3.74 | 3.89 | 3.63 | 1.36 | -4
[13] | -1.51 | -2.79 | -1.59 | -8.82 | 13
[28] | 0.14 | -2.95 | -2.33 | -2.36 | 4.52

Settings | drug sensitivity score
[14] | 0
[15] | 0
[16] | 0.17
[17] | 0.86
[18] | 0
[19] | 0
[20] | 0.33
[21] | 2.08
[22] | 0
[23] | 0
[24] | 1.14
[25] | 0
[26] | 0
[27] | 0.02

CC(C)c1cc(-c2n[nH]c(=O)n2-c2ccc3c(ccn3C)c2)c(O)cc1O [Ganetespib] (max concentration tested 1000 nM)
percent inhibition of viability [%]
Settings | 0.1 nM | 1 nM | 10 nM | 100 nM | 1000 nM
[1] | -14.5 | -11 | 45.4 | 78.5 | 79.9
[2] | 2.3 | -0.42 | 39.1 | 41.8 | 52.9
[3] | 1.44 | 4.41 | 5.54 | 99.7 | 109
[4] | -3.81 | -4.31 | 1.84 | 93.2 | 99.1
[5] | -4.93 | 1.18 | 65.2 | 77.6 | 79.6
[6] | -3.59 | 1.19 | 45.1 | 90 | 92.9
[7] | -6.96 | -10.1 | 22.3 | 97.8 | 105
[8] | 1.74 | 4.42 | 62.4 | 86.4 | 86.4
[9] | -23.6 | -15.5 | 5.21 | 86.1 | 88.1
[10] | -2.27 | -6.04 | 33.9 | 101 | 107
[11] | -2.6 | -2.72 | -0.68 | 99.7 | 101
[12] | -0.77 | -8.2 | 40.1 | 101 | 107
[13] | -4.38 | 6.84 | 68.9 | 101 | 101
[28] | -7.81 | -3.48 | 56 | 98.1 | 99.3

Settings | drug sensitivity score
[14] | 24.6
[15] | 20.1
[16] | 14.4
[17] | 18.7
[18] | 17.1
[19] | 22.3
[20] | 22
[21] | 21.4
[22] | 23.5
[23] | 16.5
[24] | 22.8
[25] | 17.9
[26] | 23.3
[27] | 26.6
